Counter-ions that a name gives are not always drawn.
Tests used:
KRAS-G12D and SOS1 = biological target: T1, KRAS-G12D and SOS1 (Homo sapiens, UniProt P01116, G12D); assay: Inhibition of KRAS-G12D/SOS1 binding (Cisbio binding kit, 665/615 ratio), Effect Embodiment A; details: read-out: GTP-KRAS-G12D:SOS1 IC50
T1 construct: purchased
Method in brief: (§1)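 Compounds are tested over eleven threefold dilution steps in duplicate, with final DMSO at 1%.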

KRAS_G12D and cRAF = biological target: T2, KRAS_G12D and cRAF (Homo sapiens, UniProt P01116, G12D); assay: Inhibition of KRAS_G12D/cRAF binding (Cisbio binding kit, 665/615 ratio), Effect Embodiment B; details: read-out: GTP-KRAS-G12D:CRAF IC50
T2 construct: purchased
T2 sequence (P01116 1-188 isoform P01116-2 G12D): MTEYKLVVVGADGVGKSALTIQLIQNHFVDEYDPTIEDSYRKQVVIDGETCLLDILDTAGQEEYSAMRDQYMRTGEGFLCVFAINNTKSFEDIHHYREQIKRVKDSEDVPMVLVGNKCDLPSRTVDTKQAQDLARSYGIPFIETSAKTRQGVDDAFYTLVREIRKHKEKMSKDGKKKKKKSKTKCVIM
Method in brief: as §1

KRAS_WT and SOS1 = biological target: T3, KRAS_WT and SOS1 (Homo sapiens, UniProt P01116); assay: Inhibition of KRAS_WT/SOS1 binding (Cisbio binding kit, 665/615 ratio), Effect Embodiment C; details: read-out: GTP-KRAS-WT:SOS1 IC50
T3 construct: purchased
T3 sequence (P01116 1-188 isoform P01116-2): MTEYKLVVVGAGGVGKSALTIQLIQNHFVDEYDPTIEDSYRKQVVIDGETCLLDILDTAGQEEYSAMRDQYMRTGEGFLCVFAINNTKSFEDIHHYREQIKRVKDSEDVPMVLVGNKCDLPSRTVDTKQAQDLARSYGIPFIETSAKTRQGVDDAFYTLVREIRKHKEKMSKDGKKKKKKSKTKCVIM
Method in brief: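 Compounds tested as 3-fold, 11-point dilutions in duplicate at 1% DMSO final against the KRAS_WT/SOS1 binding system. IC50 derived by nonlinear regression fit.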

T1 sequence (P01116 1-188 isoform P01116-2 G12D): as the sequence (P01116 1-188 isoform P01116-2 G12D) above

IC50 (KRAS-G12D and SOS1) [nM] | IC50 (KRAS_G12D and cRAF) [nM] | IC50 (KRAS_WT and SOS1) [nM] | SMILES
49.8 | 135 | 1280 | CC1OCCN(CCCOc2nc(N3CC4CCC(C3)N4)c3cc(Cl)c(-c4cc(O)cc5ccccc45)c(F)c3n2)C1C (single isomer, unassigned) [Compound 265c, 4-((R or S)-4-((1R,5S)-3,8-diazabicyclo[3.2.1]octan-3-yl)-6-chloro-2-(3-((2S or 2R, 3S or 3R)-(2,3-dimethylmorpholinyl)propoxy)-8-fluoroquinazolin-7-yl)naphthalen-2-ol diformate]
28.6 | 122 | 2970 | CN(CCCOc1nc(N2CC3CCC(C2)N3)c2cc(Cl)c(-c3cc(O)cc4ccccc34)c(F)c2n1)CCC(O)CO (single isomer, unassigned) [Compound 148, 4-((3-((S or R)-4-((1R,5S)-3,8-diazabicyclo[3.2.1]octan-3-yl)-6-chloro-8-fluoro-7-(3-hydroxynaphthalen-1-yl)quinazolin-2-yl)oxy)propyl)(methyl)amino)butan-1,2-diol ditrifluoroacetate]
51.8 | 168 | 2150 | C[C@H](COc1nc(N2CC3CCC(C2)N3)c2cc(Cl)c(-c3cc(O)cc4ccccc34)c(F)c2n1)CN(C)C (single isomer, unassigned) [Compound 202, 4-((S or R)-4-((1R,5S)-3,8-diazabicyclo[3.2.1]octan-3-yl)-6-chloro-2-((S)-3-(dimethylamino)-2-methylpropoxy)-8-fluoroquinazolin-7-yl)naphthalen-2-ol diformate]
20.4 | 12.6 | 47.2 | Oc1cc(-c2c(Cl)cc3c(N4CC5CCC(C4)N5)nc(OCC45CCCN4CCC5)nc3c2F)c2ccccc2c1 (single isomer, unassigned) [Compound 58a, 4-((S or R)-4-((1R,5S)-3,8-diazabicyclo[3.2.1]octan-3-yl)-6-chloro-8-fluoro-2-((tetrahydro-1H-pyrrolin-7a(5H)-yl)methoxy)quinazolin-7-yl)naphthalen-2-o1]
53.3 | 219 | 3400 | CO[C@@H](COc1nc(N2CC3CCC(C2)N3)c2cc(Cl)c(-c3cc(O)cc4ccccc34)c(F)c2n1)CN1C2CCC1COC2 (single isomer, unassigned) [Compound 182, (4R or S)-4-(2-((2R)-3-(3-oxa-8-azabicyclo[3.2.1]octan-8-yl)-2-methoxypropoxy)-4-((1R,5S)-3,8-diazabicyclo[3.2.1]octan-3-yl)-6-chloro-8-fluoroquinazolin-7-yl)naphthalen-2-ol diformate]
52.7 | 170 | 1680 | C[C@@H]1CN(CCCOc2nc(N3CC4CCC(C3)N4)c3cc(Cl)c(-c4cc(O)cc5ccccc45)c(F)c3n2)C[C@H](C)O1 (single isomer, unassigned) [Compound 125, 4-((S or R)-4-((1R,5S)-3,8-diazacyclo[3.2.1]octan-3-yl)-6-chloro-2-(3-((2S,6R)-2,6-dimethylmorpholine)propoxy)-8-fluoroquinolin-7-yl)naphthalen-2-ol hydrochloride]
25 | 31.9 | 553 | CO[C@@H]1C[C@@H](COc2nc(N3CC4CCC(C3)N4)c3cc(Cl)c(-c4cc(O)cc5ccccc45)c(F)c3n2)N(C)C1 (single isomer, unassigned) [Compound 166, (R or S)-4-(4-((1R,5S)-3,8-diazabicyclo[3.2.1]octan-3-yl)-6-chloro-8-fluoro-2-((2S,4R)-4-methoxy-1-methylpyrrolidin-2-yl)methoxy)quinazolin-7-yl)naphthalenol dihydrochloride]
25.3 | 146 | 1470 | Oc1cc(-c2c(Cl)cc3c(N4CC5CCC(C4)N5)nc(OCCCN4CCC5(CCOCC5)C4)nc3c2F)c2ccccc2c1 (single isomer, unassigned) [Compound 259, 4-((S or R)-2-(3-(8-oxa-2-azaspiro[4.5]decan-2-yl)propoxy)-4-((1R,5S)-3,8-diazacyclo[3.2.1]octan-3-yl)-6-chloro-8-fluoroquinazolin-7-yl)naphthalen-2-ol formate]
248 | 589 | 9750 | CN(C)C1CN(c2nc(N3C[C@@H]4C[C@H]3CN4)c3cc(Cl)c(-c4cc(O)cc5ccccc45)c(F)c3n2)C1 (single isomer, unassigned) [Compound 2a, (R or S)-4-(4-((1S,4S)-2,5-diazabicyclo [2.2.1]heptan-2-yl)-6-chloro-2-(3-(dimethylamino)azetidin-1-yl)-8-fluoro-quinazolin-7-yl)naphthalen-2-ol]
1140 | 9210 | 28900 | CN1CCN(c2nc(N3CC4CCC(C3)N4)c3cc(Cl)c(-c4cc(O)cc5ccccc45)c(F)c3n2)CC1 (single isomer, unassigned) [Compound 52a, 4-((S or R)-4-((1R,5S)-3,8-diazabicyclo[3.2.1]octan-3-yl)-6-chloro-8-fluoro-2-(4-methylpiperazin-1-yl)quinazolin-7-yl)naphthalen-2-ol]
51.8 | 49.4 | 2020 | C[C@@H](COc1nc(N2CC3CCC(C2)N3)c2cc(Cl)c(-c3cc(O)cc4ccccc34)c(F)c2n1)CN1C[C@@H](C)O[C@H](C)C1 (single isomer, unassigned) [Compound 216, 4-((S or R)-4-((1R,5S)-3,8-diazabicyclo[3.2.1]octan-3-yl)-6-chloro-2-((R)-3-((2R,6R)-2,6-dimethylmorpholinyl)-2-methylpropoxy)-8-fluoroquinazolin-7-yl)naphthalen-ol diformate]
15.7 | 28.1 | 626 | C[C@@H](COc1nc(N2CC3CCC(C2)N3)c2cc(Cl)c(-c3cc(O)cc4ccccc34)c(F)c2n1)CN1C2CC3CC1CC(C2)O3 (single isomer, unassigned) [Compound 230, 4-((S or R)-2-((R)-3-((1R,3R,5R,7R)-2-oxa-6-azadamantan-6-yl)-2-methylpropoxy)-4-((1R,5S)-3,8-diazabicyclo[3.2.1]octan-3-yl)-6-chloro-8-fluoroquinazolin-7-yl)naphthalen-2-ol diformate]
30.8 | 55.2 | 196 | CN1CCC[C@H]1COc1nc(N2C[C@H]3C=C[C@@H](C2)N3)c2cnc(-c3cc(O)cc4ccccc34)c(F)c2n1 [Compound 159, 4-(4-((1R,5S)-3,8-diazabicyclo[3.2.1]oct-6-en-3-yl)-8-fluoro-2-(((S)-1-methylpyrrolidin-2-yl)methoxy)pyrido[4,3-d]pyrimidin-7-yl)naphthalen-2-ol diformate]
13.3 | 28.5 | 944 | C[C@@H](COc1nc(N2CC3CCC(C2)N3)c2cc(Cl)c(-c3cc(O)cc4ccccc34)c(F)c2n1)CN1CCO[C@@H](C)C1 (single isomer, unassigned) [Compound 247, 4-((S or R)-4-((1R,5S)-3,8-diazacyclo[3.2.1]octan-3-yl)-6-chloro-8-fluoro-2-((R)-2-methyl-3-((S)-2-methylmorpholinyl)propoxy)quinazolin-7-yl)naphthalen-2-ol formate]
294 | 4380 | 2550 | CN(C)C1CN(c2nc(N3CC4CC(C3)N4)c3cc(Cl)c(-c4cc(O)cc5ccccc45)c(F)c3n2)C1 (single isomer, unassigned) [Compound 25, 4-((7S or 7R)-4-(3,6-diazabicyclo[3.1.1]heptan-3-yl)-6-chloro-2-(3-(dimethylamino)azetidin-1-yl)-8-fluoroquinazolin-7-yl)naphthalen-2-ol]
43.9 | 115 | 2530 | C[C@@H]1COC[C@@H](C)N1CCCOc1nc(N2C[C@H]3CC[C@@H](C2)N3)c2cc(Cl)c(-c3cc(O)cc4ccccc34)c(F)c2n1 (single isomer, unassigned) [Compound 164, (R or S)-4-(4-((1R,5S)-3,8-diazabicyclo[3.2.1]octan-3-yl)-6-chloro-2-(3-((3R,5R)-3,5-dimethylmorpholinyl)propoxy)-8-fluoroquinazolin-7-yl)naphthalen-2-ol dihydrochloride]
27.8 | 85.4 | 1880 | Oc1cc(-c2c(Cl)cc3c(N4C[C@H]5CC[C@@H](C4)N5)nc(OCCCN4C[C@@H]5C[C@H]4CO5)nc3c2F)c2ccccc2c1 (single isomer, unassigned) [Compound 165, (R or S)-4-(2-(3-((1S,4S)-2-oxa-5-azabicyclo[2.2.1]heptan-5-yl)propoxy)-4-((1R,5S)-3,8-diazabicyclo[3.2.1]octan-3-yl)-6-chloro-8-fluoroquinazolin-7-yl)naphthalen-2-ol dihydrochloride]
27.4 | 110 | 1480 | Oc1cc(-c2c(Cl)cc3c(N4CC5CCC(C4)N5)nc(OCCCN4CC5(COC5)C4)nc3c2F)c2ccccc2c1 (single isomer, unassigned) [Compound 245, 4-((S or R)-2-(3-(2-oxa-6-azaspiro[3.3]heptan-6-yl)propoxy)-4-((1R,5S)-3,8-diazacyclo[3.2.1]octan-3-yl)-6-chloro-8-fluoroquinazolin-7-yl)naphthalen-2-ol diformate]

SMILES | IC50 (KRAS-G12D and SOS1) [nM] | IC50 (KRAS_G12D and cRAF) [nM] | IC50 (KRAS_WT and SOS1) [nM]
CN(C)CCCCOc1nc(N2CC3CCC(C2)N3)c2cc(Cl)c(-c3cc(O)cc4ccccc34)c(F)c2n1 (single isomer, unassigned) [Compound 60a, 4-((S or R)-4-((1R,5S)-3,8-diazabicyclo[3.2.1]octan-3-yl)-6-chloro-2-(4-(dimethylamino)butoxy)-8-fluoroquinazolin-7-yl)naphthalen-2-ol] | 63 | 357 | 5900

— patent US20230365563A1, “QUINAZOLINE COMPOUND AND APPLICATION THEREOF” (SHANGHAI PHARMACEUTICALS HOLDING CO., LTD., priority 2020, published 2023)
